Source: the NIST ThermoML archive (doi:10.1021/acs.jced.6b00232)

Assay: mn = molality of the nth substance listed, in mol/kg
Conditions: 84.5 kPa, Liquid; for speed of sound: Frequency=3 MHz, Sing-around technique in a fixed-path interferometer; for mass density: Vibrating tube method

O=C(CO)[C@@H](O)[C@H](O)[C@H](O)CO [D-fructose] + O
Conditions	mass density, 288.15 K [kg/m3]	mass density, 293.15 K [kg/m3]	mass density, 298.15 K [kg/m3]	mass density, 303.15 K [kg/m3]	mass density, 308.15 K [kg/m3]	speed of sound, 288.15 K [m/s]	speed of sound, 293.15 K [m/s]	speed of sound, 298.15 K [m/s]	speed of sound, 303.15 K [m/s]	speed of sound, 308.15 K [m/s]
m1 = 0.1716	–	–	1008.73	–	–	1478.9	1494.4	1508	1519.8	1529.9
m1 = 0.2312	1015.03	1013.99	1012.69	–	1009.43	1483.2	1498.5	1511.8	–	1533.4
m1 = 0.292	1019.08	1018	1016.66	1015.1	1013.34	1487.5	–	1515.7	1527.1	1536.9
m1 = 0.4825	1031.39	1030.21	1028.76	1027.1	1025.25	1500.9	1515.3	–	–	1547.8
m1 = 0.6161	1039.7	1038.45	1036.93	1035.21	1033.29	1510.2	1524.1	1536.2	1546.5	1555.3
m1 = 0.9787	1061.06	1059.67	1057.92	1056.02	1053.95	1534.7	1547.5	1558.4	1567.7	1575.5
m1 = 1.386	1083.13	1081.5	1079.62	1077.55	1075.32	1561.6	1572.9	1582.5	1590.7	1597.3
m1 = 1.851	1106.02	1104.26	1102.2	1099.94	1097.55	1588.9	1599.1	1607.5	1614.3	1619.9
m1 = 2.379	1129.63	1127.76	1125.52	1123.09	1120.53	1622.1	1630.8	1637.6	1643	1647.2
m1 = 2.981	1153.68	1151.66	1149.24	1146.65	1143.92	1655.5	1662.7	1668	1671.9	1674.7
m1 = 3.667	1178.12	1175.94	1173.34	1170.58	1167.69	1691	1696.5	1700.1	1702.5	1703.9

OC[C@H]1O[C@@](CO)(O[C@H]2O[C@H](CO)[C@@H](O)[C@H](O)[C@H]2O)[C@@H](O)[C@@H]1O [D-sucrose] + O
Conditions	mass density, 288.15 K [kg/m3]	mass density, 293.15 K [kg/m3]	mass density, 298.15 K [kg/m3]	mass density, 303.15 K [kg/m3]	mass density, 308.15 K [kg/m3]	speed of sound, 288.15 K [m/s]	speed of sound, 293.15 K [m/s]	speed of sound, 298.15 K [m/s]	speed of sound, 303.15 K [m/s]	speed of sound, 308.15 K [m/s]
m1 = 0.09036	1010.86	1009.89	1008.67	1007.22	1005.55	1475.4	1491.1	1504.9	1516.9	1527.3
m1 = 0.1217	1014.83	1013.84	1012.59	1011.12	1009.43	1478.5	1494	1507.7	1519.6	1529.8
m1 = 0.1537	1018.82	1017.8	1016.53	1015.04	1013.34	1481.6	1497	1510.6	1522.3	1532.5
m1 = 0.2538	1030.98	1029.88	1028.55	1027	1025.25	1491.5	1506.4	1519.5	1530.9	1540.7
m1 = 0.3245	1039.25	1038.1	1036.73	1035.14	1033.35	1498.3	1513	1525.8	1537	1546.5
m1 = 0.5156	1060.41	1059.13	1057.64	1055.96	1054.09	1516.8	1530.7	1542.8	1553.2	1562
m1 = 0.729	1082.25	1080.85	1079.25	1077.46	1075.5	1537.3	1550.2	1561.5	1571.1	1579.2
m1 = 0.9736	1105.1	1103.56	1101.84	1099.96	1097.9	1559.9	1571.9	1582.2	1591	1598.4
m1 = 1.252	1128.74	1127.07	1125.24	1123.25	1121.11	1585.2	1596.1	1605.4	1613.3	1619.7
m1 = 1.573	1153.12	1151.33	1149.38	1147.28	1145.06	1613	1622.7	1630.9	1637.7	1643.2
m1 = 1.948	1178.48	1176.55	1174.48	1172.29	1169.98	1643.8	1652.1	1659.1	1664.8	1669.3

O=C[C@H](O)[C@@H](O)[C@H](O)[C@H](O)CO [D-glucose] + O
Conditions	mass density, 288.15 K [kg/m3]	mass density, 293.15 K [kg/m3]	mass density, 298.15 K [kg/m3]	mass density, 303.15 K [kg/m3]	mass density, 308.15 K [kg/m3]	speed of sound, 288.15 K [m/s]	speed of sound, 293.15 K [m/s]	speed of sound, 298.15 K [m/s]	speed of sound, 303.15 K [m/s]	speed of sound, 308.15 K [m/s]
m1 = 0.2921	1018.67	1017.62	1016.34	1014.83	1013.12	–	1501	1514.3	1526	1535.9
m1 = 0.4836	1030.78	1029.64	1028.28	1026.7	1024.93	1498.4	1513	1525.9	1537.1	1546.6
m1 = 0.6164	1038.85	1037.66	1036.24	1034.62	1032.81	1507	1521.3	1533.9	1544.7	1554
m1 = 0.9795	1059.74	1058.4	1056.86	1055.12	1053.22	1530.3	–	1555.2	1565.2	1573.6
m1 = 1.388	1081.24	1079.76	1078.09	1076.24	1074.24	1555.6	1567.8	1578.4	1587.4	1595
m1 = 1.85	1103.58	1101.95	1100.14	1098.18	1096.07	1583.6	1594.7	1604.2	1612.2	1618.8
m1 = 2.379	1126.54	1124.77	1122.85	1120.79	1118.58	1613.6	1623.3	1631.7	1638.6	1644.3
m1 = 2.989	1150.24	1148.34	1146.3	1144.14	1141.85	1646	1654.4	1661.4	1667.2	1671.8
m1 = 3.7	1174.74	1172.71	1170.56	1168.3	1165.92	1681.2	1688	1693.8	1698.3	1701.8
